In test [1] the target is T1, HCV NS5B polymerase 1a-H77 (Hepatitis C virus genotype 1a, UniProt P27958).
T1 construct: six-histidine tag; made in house; host or cells: E. coli
The test can be described thus: biochemical. Further details: species or system HCV genotype 1a. To be noted: enzyme, strain 1a H77; read-out: HCV Polymerase Strain 1a H77 IC50. In outline:
(§1)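 Incorporation of [3H]UTP (0.284 μM), alongside 20 μM each CTP and ATP, into RNA copied from a 5 nM 2.1 kb genotype 1b negative-strand template was measured after 3 h at 30° C using purified His-tagged NS5B truncated at residue 570. Product was spermine-precipitated, filtered and scintillation-counted; nonlinear regression gave IC50.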

Test [2] concerns the target T2, HCV NS5B polymerase 1a-H77-C316Y (Hepatitis C virus genotype 1a, UniProt P27958, C2736Y).
T2 construct: six-histidine tag; made in house; host or cells: E. coli
Nature of the test: biochemical. Set-up: species or system HCV genotype 1a. In outline:
as §1

Test [3] deals with HCV NS5B polymerase 1a-H77-C316Y. Nature of the test: biochemical. Set-up: species or system HCV genotype 1a. To be noted: ratio of enzyme IC50s, 1a H77-C316Y / 1a H77. The method in brief: as §1
The target in test [4] is T3, HCV NS5B polymerase 1b BK strain (Hepatitis C virus genotype 1b, UniProt P26663).
T3 construct: six-histidine tag; made in house; host or cells: E. coli
T3 sequence (P26663 2420-2989): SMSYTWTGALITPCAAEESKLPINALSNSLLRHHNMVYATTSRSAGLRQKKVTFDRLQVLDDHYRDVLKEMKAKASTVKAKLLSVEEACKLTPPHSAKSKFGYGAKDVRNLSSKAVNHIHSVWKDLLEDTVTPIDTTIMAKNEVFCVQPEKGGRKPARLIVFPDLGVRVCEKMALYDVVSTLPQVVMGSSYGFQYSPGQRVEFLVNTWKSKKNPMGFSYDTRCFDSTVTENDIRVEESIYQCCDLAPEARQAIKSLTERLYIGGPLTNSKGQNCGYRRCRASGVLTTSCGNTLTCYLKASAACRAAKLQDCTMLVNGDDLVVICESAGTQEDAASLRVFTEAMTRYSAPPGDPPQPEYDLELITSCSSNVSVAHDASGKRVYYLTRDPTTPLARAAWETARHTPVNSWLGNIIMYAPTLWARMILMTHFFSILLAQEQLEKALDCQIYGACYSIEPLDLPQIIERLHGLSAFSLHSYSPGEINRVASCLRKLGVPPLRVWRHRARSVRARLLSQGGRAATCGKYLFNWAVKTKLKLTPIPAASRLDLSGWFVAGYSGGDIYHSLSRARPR
The test can be described thus: HCV NS5B polymerase enzymatic inhibition assay, strain 1b BK. The format is biochemical. To be noted: enzyme, strain 1b BK; read-out: HCV Polymerase Strain 1b BK IC50. The method in brief:
as §1

For test [5], the system named is HCV 1a-H77 subgenomic replicon. Nature of the test: microbe, parasite or virus in culture. It counts as cell-based, HCV genotype 1a. To be noted: Hepatitis C virus, stable replicon.
Test [6] concerns HCV 1b-BB7 subgenomic replicon. Nature of the test: microbe, parasite or virus in culture. It counts as cell-based, HCV genotype 1b. To be noted: Hepatitis C virus, stable replicon.
For test [7], the system named is chimeric replicon with 2a-J6CF-derived NS5B. The test can be described thus: microbe, parasite or virus in culture. It counts as cell-based, HCV genotype 2a. To be noted: Hepatitis C virus, read-out: 2a chimera 5% FBS EC50.
Test [8] concerns chimeric replicon with genotype 2b NS5B. Nature of the test: microbe, parasite or virus in culture. The format is cell-based, HCV genotype 2b. To be noted: Hepatitis C virus, read-out: 2b chimera 5% FBS EC50.
The subject of test [9] is chimeric replicon with genotype 3a NS5B. Nature of the test: microbe, parasite or virus in culture. It counts as cell-based, HCV genotype 3a. To be noted: Hepatitis C virus, read-out: 3a chimera 5% FBS EC50.
For test [10], the system named is chimeric replicon with genotype 4a NS5B. Nature of the test: microbe, parasite or virus in culture. To be noted: Hepatitis C virus, read-out: 4a chimera 5% FBS EC50. The format is cell-based, HCV genotype 4a.
The mark [11] stands for this setting: 5% FBS, absence of human plasma, read-out: Stable Replicon 1a H77 5% FBS EC50.
Setting [12] is: strain 1a H77, 5% FBS + 40% human plasma, read-out: 1a H77 5% FBS + 40% Human Plasma EC50.
[13] abbreviates: strain 1a H77, 5% FBS, no human plasma, read-out: 1a H77 5% FBS EC50.
[14] abbreviates: strain 1a H77, 5% FBS, read-out: 1a H77 5% FBS EC50.
[15] abbreviates: strain 1b BB7, 5% FBS + 40% human plasma, read-out: 1b BB7 5% FBS + 40% Human Plasma EC50.
[16] abbreviates: strain 1b BB7, 5% FBS, no human plasma, read-out: 1b BB7 5% FBS EC50.
Setting [17] is: strain 1b BB7, 5% FBS, read-out: 1b BB7 5% FBS EC50.

pEC50, pIC50: −log10 of the molar value. Where two headings read alike, the source gives them in different places.

T2 sequence (P27958 2421-2990 C2736Y): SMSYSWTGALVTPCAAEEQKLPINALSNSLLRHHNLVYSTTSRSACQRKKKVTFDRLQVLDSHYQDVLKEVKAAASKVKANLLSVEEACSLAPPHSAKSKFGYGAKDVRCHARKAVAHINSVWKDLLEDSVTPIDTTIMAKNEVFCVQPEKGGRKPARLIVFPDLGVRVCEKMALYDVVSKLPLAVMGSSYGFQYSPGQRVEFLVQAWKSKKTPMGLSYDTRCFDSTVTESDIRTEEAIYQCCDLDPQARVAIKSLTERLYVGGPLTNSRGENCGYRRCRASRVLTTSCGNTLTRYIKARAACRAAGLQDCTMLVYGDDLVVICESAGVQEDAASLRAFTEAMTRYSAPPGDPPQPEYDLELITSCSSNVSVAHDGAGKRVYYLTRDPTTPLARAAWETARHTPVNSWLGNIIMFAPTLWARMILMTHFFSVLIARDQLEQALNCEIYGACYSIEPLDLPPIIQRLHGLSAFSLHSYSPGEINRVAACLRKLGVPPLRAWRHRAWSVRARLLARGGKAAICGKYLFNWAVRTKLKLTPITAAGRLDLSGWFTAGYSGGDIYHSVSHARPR
T1 sequence (P27958 2421-2990): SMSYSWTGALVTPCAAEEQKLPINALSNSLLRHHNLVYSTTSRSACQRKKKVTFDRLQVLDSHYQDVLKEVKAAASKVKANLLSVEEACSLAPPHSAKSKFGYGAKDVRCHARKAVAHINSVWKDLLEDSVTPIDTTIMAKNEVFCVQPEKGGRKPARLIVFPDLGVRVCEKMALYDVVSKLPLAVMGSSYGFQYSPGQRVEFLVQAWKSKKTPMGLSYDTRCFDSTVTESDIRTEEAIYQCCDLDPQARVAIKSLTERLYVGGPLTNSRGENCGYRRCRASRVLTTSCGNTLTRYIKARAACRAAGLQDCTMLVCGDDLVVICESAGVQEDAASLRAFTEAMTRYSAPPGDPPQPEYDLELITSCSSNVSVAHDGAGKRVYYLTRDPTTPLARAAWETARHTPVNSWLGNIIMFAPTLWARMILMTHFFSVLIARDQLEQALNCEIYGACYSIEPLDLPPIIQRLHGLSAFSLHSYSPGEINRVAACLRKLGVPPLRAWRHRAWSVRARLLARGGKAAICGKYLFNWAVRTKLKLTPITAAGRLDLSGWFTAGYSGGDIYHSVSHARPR

On to `CS(=O)(=O)N(CCCCCO)c1cc2oc(-c3ccc(F)cc3)c(C3=NOCCN3)c2cc1C1CC1` [Example 134, N-[5-cyclopropyl-3-(5,6-dihydro-4H-1,2,4-oxadiazin-3-yl)-2-(4-fluorophenyl)-1-benzofuran-6-yl]-N-(5-hydroxypentyl)methanesulfonamide], for which the pIC50 in test [1] is 8.10; in [2] it was 7.38; in [4], 7.09. Besides, in test [3], the “C316Y/1a Fold Resistance” value is given as 5 fold. Also, the pEC50 in [5] (setting [11]) is 8.19; in [5] (setting [12]) it was 7.16; in [5] (setting [13]), 8.19; in [5] (setting [14]), 8.19; in [6] (setting [15]), 7.03; in test [6] (setting [16]), 8.05. The pEC50 in test [6] (setting [17]) was 8.05; in test [7], 7.08; in [8], 7.16; in test [9], 7.70; in test [10], 7.28.
As to `CS(=O)(=O)N(CCC1CCOCC1)c1cc2oc(-c3ccc(F)cc3)c(-c3ncc[nH]3)c2cc1C1CC1` [Example 48, N-[5-cyclopropyl-2-(4-fluorophenyl)-3-(1H-imidazol-2-yl)-1-benzofuran-6-yl]-N-[2-(tetrahydro-2H-pyran-4-yl)ethyl]methanesulfonamide], the figures for the negative logarithm of the IC50 (pIC50) in test [1], in test [2] and in test [4] were 8.11, 7.13 and 7.64, respectively. The “C316Y/1a Fold Resistance” value in test [3] turned out to be 10 fold. Moreover, the pEC50 was 7.94 in test [5] (setting [11]); 6.83 in [5] (setting [12]); 7.94 in test [5] (setting [13]); 7.94 in test [5] (setting [14]); 7.12 in test [6] (setting [15]); 8.08 in test [6] (setting [16]). Besides, the pEC50 in test [6] (setting [17]) is 8.07; in [7], 7.08; in test [8], 7.16; in [9], 8.00; in test [10], 7.33.
Regarding `CC(C)CCN(c1cc2oc(-c3ccc(F)cc3)c(C3=NOCC(=O)N3)c2cc1C1CC1)S(C)(=O)=O` [Example 162, N-[5-cyclopropyl-2-(4-fluorophenyl)-3-(5-oxo-5,6-dihydro-4H-1,2,4-oxadiazin-3-yl)-1-benzofuran-6-yl]-N-(3-methylbutyl)methanesulfonamide], the pIC50 in [1] is 7.45; in test [2], 5.92; in [4] it was 6.15. Moreover, the “C316Y/1a Fold Resistance” value in test [3] is given as 34 fold. Further, the pEC50 in test [5] (setting [11]) was 6.61; in test [5] (setting [12]), 5.00; in test [5] (setting [13]), 6.61; in test [5] (setting [14]), 6.61; in [6] (setting [15]), 5.01; in test [6] (setting [16]) it was 6.49. The pEC50 in test [6] (setting [17]) is 6.49; in [7] it was 6.00; in test [8], 6.00; in test [9], 6.00; in test [10] it was under 6.00.
As to `CS(=O)(=O)N(CCCc1noc(=S)[nH]1)c1cc2oc(-c3ccc(F)cc3)c(-c3ncc[nH]3)c2cc1C1CC1` [Example 177, N-[5-cyclopropyl-2-(4-fluorophenyl)-3-(1H-imidazol-2-yl)-1-benzofuran-6-yl]-N-[3-(5-thioxo-4,5-dihydro-1,2,4-oxadiazol-3-yl)propyl]methanesulfonamide], the negative-log IC50 (pIC50) in test [1] was 8.40; in test [2] it was 7.42; in test [4] it was 7.44. The “C316Y/1a Fold Resistance” value in test [3] stood at 10 fold. Also, the pEC50 in test [5] (setting [11]) is 7.49; in test [5] (setting [12]) it was 6.28; in test [5] (setting [13]), 7.49; in test [5] (setting [14]) it was 7.49; in test [6] (setting [15]) it was 6.34; in test [6] (setting [16]) it was 7.64. Further, the pEC50 in test [6] (setting [17]) is 7.64; in test [7], 6.37; in test [8], 6.22; in test [9] it was 7.52; in test [10], 6.40.
Regarding `CC(=O)OCCCCCN(c1cc2oc(-c3ccc(F)cc3)c(-c3ncc[nH]3)c2cc1C1CC1)S(C)(=O)=O` [Example 46, 5-{[5-cyclopropyl-2-(4-fluorophenyl)-3-(1H-imidazol-2-yl)-1-benzofuran-6-yl](methylsulfonyl)amino}pentyl acetate], the pIC50 in [1] was 8.35; in test [2], 7.01; in test [4] it was 7.96. Further, in test [3], the “C316Y/1a Fold Resistance” value is on record as 22 fold. Also, the pEC50 in [5] (setting [11]) is 8.35; in test [5] (setting [12]), 6.95; in test [5] (setting [13]) it was 8.35; in test [5] (setting [14]), 8.35; in test [6] (setting [15]), 7.44; in [6] (setting [16]), 8.33. Further, the pEC50 was 8.34 in test [6] (setting [17]); 7.56 in [7]; 7.63 in test [8]; 8.57 in test [9]; 7.51 in test [10].
As to `CS(=O)(=O)CCCN(c1cc2oc(-c3ccc(F)cc3)c(C3=NOCCN3)c2cc1C1CC1)S(C)(=O)=O` [Example 140, N-[5-cyclopropyl-3-(5,6-dihydro-4H-1,2,4-oxadiazin-3-yl)-2-(4-fluorophenyl)-1-benzofuran-6-yl]-N-[3-(methylsulfonyl)propyl]methanesulfonamide], the pIC50 was 8.30 in test [1], 7.42 in test [2] and 7.38 in test [4]. Besides, the “C316Y/1a Fold Resistance” value in [3] stood at 8 fold. In addition, the pEC50 in test [5] (setting [11]) is 7.84; in test [5] (setting [12]) it was 6.91; in [5] (setting [13]), 7.84; in test [5] (setting [14]) it was 7.84; in test [6] (setting [15]), 6.82; in [6] (setting [16]), 7.96. Moreover, the pEC50 in [6] (setting [17]) was 7.96; in [7] it was 6.56; in test [8], 6.68; in test [9], 7.36; in [10], 6.72.
As for `CCCCCCN(c1cc2oc(-c3ccc(F)cc3)c(-c3ncc[nH]3)c2cc1C1CC1)S(C)(=O)=O` [Example 71, N-[5-cyclopropyl-2-(4-fluorophenyl)-3-(1H-imidazol-2-yl)-1-benzofuran-6-yl]-N-hexylmethanesulfonamide], the results for the negative logarithm of the IC50 (pIC50) in test [1], in test [2] and in [4] were 8.05, 6.87 and 7.55, respectively. Further, the “C316Y/1a Fold Resistance” value in test [3] worked out at 15 fold. The pEC50 was 7.18 in test [5] (setting [11]); 5.64 in [5] (setting [12]); 7.18 in test [5] (setting [13]); 7.18 in [5] (setting [14]); 5.97 in [6] (setting [15]); 7.41 in [6] (setting [16]). Moreover, the pEC50 in test [6] (setting [17]) is 7.41; in test [7] it was 6.39; in test [8] it was 6.42; in [9], 7.14; in [10], 6.22.
In the case of `CCCCN(c1cc2oc(-c3ccc(F)cc3)c(-c3ncc[nH]3)c2cc1C1CC1)S(C)(=O)=O` [Example 39, N-butyl-N-[5-cyclopropyl-2-(4-fluorophenyl)-3-(1H-imidazol-2-yl)-1-benzofuran-6-yl]methanesulfonamide], the negative-log IC50 (pIC50) was 8.30 in test [1], 7.11 in [2] and 7.77 in [4]. Moreover, the “C316Y/1a Fold Resistance” value in [3] was 16 fold. The negative-log EC50 (pEC50) in [5] (setting [11]) was 7.48; in test [5] (setting [12]) it was 6.88; in test [5] (setting [13]) it was 7.48; in test [5] (setting [14]), 7.48; in [6] (setting [15]) it was 7.23; in test [6] (setting [16]), 7.53. Also, the pEC50 in test [6] (setting [17]) is 7.53; in test [7] it was 6.98; in [8], 6.88; in [9], 7.55; in test [10], 6.73.
